Measured values from PubChem BioAssay (NCI).
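At the GI50, growth is halved. TGI: total growth inhibition.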

Experiments:
Experiment in all cases: NCI-60 cell line screen, 384-well format
[1] = test system: TK-10 renal
[2] = test system: MDA-MB-231 breast
[3] = test system: EKVX NSCLC
[4] = test system: UACC-62 melanoma
[5] = test system: COLO 205 colon
[6] = test system: NCI-H23 lung
[7] = test system: SF-268 CNS
[8] = test system: SF-539 CNS
[9] = test system: HCT-116 colon
[10] = test system: RPMI-8226 leukemia
[11] = test system: OVCAR-3 ovarian
[12] = test system: LOX IMVI melanoma
[13] = test system: HT29 colon
[14] = test system: UO-31 renal
[15] = test system: PC-3 prostate
[16] = test system: SNB-75 CNS
[17] = test system: SNB-19 CNS
[18] = test system: UACC-257 melanoma
[19] = test system: SW-620 colon
[20] = test system: 786-0 renal
[21] = test system: A498 renal
[22] = test system: HL-60(TB) leukemia
[23] = test system: SN12C renal
[24] = test system: MALME-3M melanoma
[25] = test system: SK-MEL-28 melanoma
[26] = test system: MDA-MB-468 breast
[27] = test system: OVCAR-4 ovarian
[28] = test system: HCC-2998 colon
[29] = test system: HCT-15 colon
[30] = test system: NCI-H322M lung
[31] = test system: BT-549 breast
[32] = test system: RXF 393 renal
[33] = test system: HOP-62 NSCLC
[34] = test system: CCRF-CEM leukemia
[35] = test system: ACHN renal
[36] = test system: SF-295 CNS
[37] = test system: DU-145 prostate
[38] = test system: M14 melanoma
[39] = test system: NCI-H522 lung
[40] = test system: NCI/ADR-RES ovarian
[41] = test system: IGROV1 ovarian
[42] = test system: MCF7 breast
[43] = test system: A549 NSCLC
[44] = test system: MDA-MB-435 melanoma
[45] = test system: HS 578T breast
[46] = test system: T-47D breast
[47] = test system: CAKI-1 renal
[48] = test system: OVCAR-8 ovarian
[49] = test system: HOP-92 NSCLC
[50] = test system: MOLT-4 leukemia
[51] = test system: NCI-H226 lung
[52] = test system: OVCAR-5 ovarian
[53] = test system: SK-OV-3 ovarian
[54] = test system: KM12 colon
[55] = test system: SK-MEL-5 melanoma
[56] = test system: K-562 leukemia
[57] = test system: U251 glioblastoma
[58] = test system: NCI-H460 NSCLC

`CNC(=O)c1c(F)cccc1Nc1nc(Nc2cc3c(cc2OC)CCN3C(=O)CN(C)C)nc2[nH]ccc12` showed a GI50 [1] of 1860 nM, a TGI [1] of 3540 nM and a GI50 [2] of 1590 nM. For the same compound, the TGI [2] was 2980 nM, the GI50 [3] was 1600 nM and the TGI [3] was 3090 nM. It also gave a GI50 [4] of 1560 nM, a TGI [4] of 2910 nM and a GI50 [5] of 152 nM. The TGI [5] was 1230 nM, the GI50 [6] was 1330 nM and the TGI [6] was 2750 nM. It also gave a GI50 [7] of 1300 nM, a TGI [7] of 2610 nM and a GI50 [8] of 1800 nM. The TGI [8] was 3200 nM, the GI50 [9] was 1440 nM and the TGI [9] was 2790 nM. For the same compound, the GI50 [10] was 1140 nM, the TGI [10] was 2370 nM and the GI50 [11] was 1800 nM. The TGI [11] was 3250 nM, the GI50 [12] was 1610 nM and the TGI [12] was 2970 nM. For the same compound, the GI50 [13] was 181 nM, the TGI [13] was 1870 nM and the GI50 [14] was 1840 nM. The TGI [14] was 3290 nM, the GI50 [15] was 2190 nM and the TGI [15] was 4450 nM. The GI50 [16] was 2000 nM, the TGI [16] was 3460 nM and the GI50 [17] was 2350 nM. The TGI [17] was 4810 nM, the GI50 [18] was 1720 nM and the TGI [18] was 3110 nM. For the same compound, the GI50 [19] was 1180 nM, the TGI [19] was 2440 nM and the GI50 [20] was 1480 nM. For the same compound, the TGI [20] was 2840 nM, the GI50 [21] was 1820 nM and the TGI [21] was 3220 nM. The GI50 [22] was 71.1 nM, the TGI [22] was 944 nM and the GI50 [23] was 2050 nM. The TGI [23] was 3500 nM, the GI50 [24] was 1250 nM and the TGI [24] was 2510 nM. It also gave a GI50 [25] of 1870 nM, a TGI [25] of 3270 nM and a GI50 [26] of 1560 nM. For the same compound, the TGI [26] was 2920 nM, the GI50 [27] was 1990 nM and the TGI [27] was 3500 nM. It also gave a GI50 [28] of 1410 nM, a TGI [28] of 2760 nM and a GI50 [29] of 1250 nM. The TGI [29] was 2610 nM, the GI50 [30] was 1580 nM and the TGI [30] was 3180 nM. The GI50 [31] was 1660 nM, the TGI [31] was 3040 nM and the GI50 [32] was 1720 nM. The TGI [32] was 3110 nM, the GI50 [33] was 1830 nM and the TGI [33] was 3390 nM. It also gave a GI50 [34] of 387 nM, a TGI [34] of 1220 nM and a GI50 [35] of 1740 nM. It also gave a TGI [35] of 3170 nM, a GI50 [36] of 1870 nM and a TGI [36] of 3290 nM. It also gave a GI50 [37] of 1820 nM, a TGI [37] of 3600 nM and a GI50 [38] of 1510 nM. The TGI [38] was 2840 nM, the GI50 [39] was 1910 nM and the TGI [39] was 3330 nM. The GI50 [40] was 2230 nM, the TGI [40] was 4980 nM and the GI50 [41] was 1760 nM. The TGI [41] was 3270 nM, the GI50 [42] was 210 nM and the TGI [42] was 1720 nM. It also gave a GI50 [43] of 1410 nM, a TGI [43] of 2760 nM and a GI50 [44] of 1510 nM. For the same compound, the TGI [44] was 2860 nM, the GI50 [45] was 1780 nM and the TGI [45] was 3190 nM. The GI50 [46] was 1940 nM, the TGI [46] was 3380 nM and the GI50 [47] was 1820 nM. The TGI [47] was 3240 nM, the GI50 [48] was 1710 nM and the TGI [48] was 3120 nM. The GI50 [49] was 1150 nM, the TGI [49] was 2420 nM and the GI50 [50] was 968 nM. For the same compound, the TGI [50] was 2140 nM, the GI50 [51] was 1740 nM and the TGI [51] was 3740 nM. For the same compound, the GI50 [52] was 1480 nM, the TGI [52] was 3240 nM and the GI50 [53] was 1970 nM. The TGI [53] was 3450 nM, the GI50 [54] was 1440 nM and the TGI [54] was 2770 nM. The GI50 [55] was 1220 nM, the TGI [55] was 2480 nM and the GI50 [56] was 1750 nM. It also gave a TGI [56] of 3140 nM, a GI50 [57] of 1900 nM and a TGI [57] of 3350 nM. It also gave a GI50 [58] of 1240 nM and a TGI [58] of 2530 nM.
